# Laboratory results taken from PubChem BioAssay (NCI).
#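 Growth conditions: 96-well plates. Treatment: test compound, 48 hours, 5 concentrations. Analysis: linear interpolation between bracketing concentrations; unreached endpoints set to highest concentration. GI50: concentration for 50% inhibition of growth. Definition used: TGI = concentration required for complete inhibition of growth.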
# Legend:
# Test in all cases: NCI-60 cell line screen, 48 h
# NCI-H23 lung = tested on: NCI-H23 lung
# MCF7 breast = tested on: MCF7 breast
# T-47D breast = tested on: T-47D breast
# OVCAR-3 ovarian = tested on: OVCAR-3 ovarian
# K-562 leukemia = tested on: K-562 leukemia
# HT29 colon = tested on: HT29 colon
# IGROV1 ovarian = tested on: IGROV1 ovarian
# SK-MEL-2 melanoma = tested on: SK-MEL-2 melanoma
# MDA-MB-231 breast = tested on: MDA-MB-231 breast
# OVCAR-4 ovarian = tested on: OVCAR-4 ovarian
# TK-10 renal = tested on: TK-10 renal
# CAKI-1 renal = tested on: CAKI-1 renal
# OVCAR-5 ovarian = tested on: OVCAR-5 ovarian
# A549 NSCLC = tested on: A549 NSCLC
# SF-295 CNS = tested on: SF-295 CNS
# HOP-92 NSCLC = tested on: HOP-92 NSCLC
# SNB-19 CNS = tested on: SNB-19 CNS
# SW-620 colon = tested on: SW-620 colon
# KM12 colon = tested on: KM12 colon
# HOP-62 NSCLC = tested on: HOP-62 NSCLC
# DU-145 prostate = tested on: DU-145 prostate
# SN12C renal = tested on: SN12C renal
# NCI-H460 lung = tested on: NCI-H460 lung
# MDA-MB-435 = tested on: MDA-MB-435
# HCC-2998 colon = tested on: HCC-2998 colon
# CCRF-CEM leukemia = tested on: CCRF-CEM leukemia
# A498 renal = tested on: A498 renal
# SK-MEL-28 melanoma = tested on: SK-MEL-28 melanoma
# HCT-116 colon = tested on: HCT-116 colon
# RPMI-8226 leukemia = tested on: RPMI-8226 leukemia
# U251 CNS = tested on: U251 CNS
# NCI-H522 lung = tested on: NCI-H522 lung
# NCI/ADR-RES ovarian = tested on: NCI/ADR-RES ovarian
# PC-3 prostate = tested on: PC-3 prostate
# OVCAR-8 ovarian = tested on: OVCAR-8 ovarian
# HL-60(TB) leukemia = tested on: HL-60(TB) leukemia
# UO-31 renal = tested on: UO-31 renal
# COLO 205 colon = tested on: COLO 205 colon
# LOX IMVI melanoma = tested on: LOX IMVI melanoma
# RXF 393 renal = tested on: RXF 393 renal
# HS 578T breast = tested on: HS 578T breast
# BT-549 breast = tested on: BT-549 breast
# SF-268 CNS = tested on: SF-268 CNS
# SK-OV-3 ovarian = tested on: SK-OV-3 ovarian
# SK-MEL-5 melanoma = tested on: SK-MEL-5 melanoma
# MALME-3M melanoma = tested on: MALME-3M melanoma
# ACHN renal = tested on: ACHN renal
# HCT-15 colon = tested on: HCT-15 colon
# MOLT-4 leukemia = tested on: MOLT-4 leukemia
# M14 melanoma = tested on: M14 melanoma
# UACC-62 melanoma = tested on: UACC-62 melanoma
# EKVX NSCLC = tested on: EKVX NSCLC
# UACC-257 melanoma = tested on: UACC-257 melanoma
# NCI-H226 lung = tested on: NCI-H226 lung
# SNB-75 CNS = tested on: SNB-75 CNS
# SF-539 CNS = tested on: SF-539 CNS
# 786-0 renal = tested on: 786-0 renal
smiles,measurement,setting,value
CCc1nccc2c1nc(-c1nonc1N)n2CC,GI50,NCI-H23 lung,> 25 µM
same,TGI,NCI-H23 lung,> 25 µM
same,GI50,MCF7 breast,> 25 µM
same,TGI,MCF7 breast,> 25 µM
same,GI50,T-47D breast,> 25 µM
same,TGI,T-47D breast,> 25 µM
same,GI50,OVCAR-3 ovarian,> 25 µM
same,TGI,OVCAR-3 ovarian,> 25 µM
same,GI50,K-562 leukemia,> 25 µM
same,TGI,K-562 leukemia,> 25 µM
same,GI50,HT29 colon,> 25 µM
same,TGI,HT29 colon,> 25 µM
same,GI50,IGROV1 ovarian,16.8 µM
same,TGI,IGROV1 ovarian,> 25 µM
same,GI50,SK-MEL-2 melanoma,> 25 µM
same,TGI,SK-MEL-2 melanoma,> 25 µM
same,GI50,MDA-MB-231 breast,> 25 µM
same,TGI,MDA-MB-231 breast,> 25 µM
same,GI50,OVCAR-4 ovarian,> 25 µM
same,TGI,OVCAR-4 ovarian,> 25 µM
same,GI50,TK-10 renal,7.83 µM
same,TGI,TK-10 renal,> 25 µM
same,GI50,CAKI-1 renal,12.2 µM
same,TGI,CAKI-1 renal,> 25 µM
same,GI50,OVCAR-5 ovarian,> 17.8 µM
same,TGI,OVCAR-5 ovarian,> 25 µM
same,GI50,A549 NSCLC,> 25 µM
same,TGI,A549 NSCLC,> 25 µM
same,GI50,SF-295 CNS,> 7.78 µM
same,TGI,SF-295 CNS,> 25 µM
same,GI50,HOP-92 NSCLC,1.39 µM
same,TGI,HOP-92 NSCLC,21.5 µM
same,GI50,SNB-19 CNS,> 25 µM
same,TGI,SNB-19 CNS,> 25 µM
same,GI50,SW-620 colon,> 25 µM
same,TGI,SW-620 colon,> 25 µM
same,GI50,KM12 colon,> 25 µM
same,TGI,KM12 colon,> 25 µM
same,GI50,HOP-62 NSCLC,> 25 µM
same,TGI,HOP-62 NSCLC,> 25 µM
same,GI50,DU-145 prostate,> 25 µM
same,TGI,DU-145 prostate,> 25 µM
same,GI50,SN12C renal,> 25 µM
same,TGI,SN12C renal,> 25 µM
same,GI50,NCI-H460 lung,> 25 µM
same,TGI,NCI-H460 lung,> 25 µM
same,GI50,MDA-MB-435,> 25 µM
same,TGI,MDA-MB-435,> 25 µM
same,GI50,HCC-2998 colon,> 25 µM
same,TGI,HCC-2998 colon,> 25 µM
same,GI50,CCRF-CEM leukemia,> 25 µM
same,TGI,CCRF-CEM leukemia,> 25 µM
same,GI50,A498 renal,7.1 µM
same,TGI,A498 renal,> 25 µM
same,GI50,SK-MEL-28 melanoma,> 25 µM
same,TGI,SK-MEL-28 melanoma,> 25 µM
same,GI50,HCT-116 colon,20.4 µM
same,TGI,HCT-116 colon,> 25 µM
same,GI50,RPMI-8226 leukemia,> 25 µM
same,TGI,RPMI-8226 leukemia,> 25 µM
same,GI50,U251 CNS,> 25 µM
same,TGI,U251 CNS,> 25 µM
same,GI50,NCI-H522 lung,> 17.7 µM
same,TGI,NCI-H522 lung,> 25 µM
same,GI50,NCI/ADR-RES ovarian,> 25 µM
same,TGI,NCI/ADR-RES ovarian,> 25 µM
same,GI50,PC-3 prostate,> 25 µM
same,TGI,PC-3 prostate,> 25 µM
same,GI50,OVCAR-8 ovarian,> 25 µM
same,TGI,OVCAR-8 ovarian,> 25 µM
same,GI50,HL-60(TB) leukemia,> 25 µM
same,TGI,HL-60(TB) leukemia,> 25 µM
same,GI50,UO-31 renal,9.73 µM
same,TGI,UO-31 renal,> 25 µM
same,GI50,COLO 205 colon,> 25 µM
same,TGI,COLO 205 colon,> 25 µM
same,GI50,LOX IMVI melanoma,> 25 µM
same,TGI,LOX IMVI melanoma,> 25 µM
same,GI50,RXF 393 renal,13.6 µM
same,TGI,RXF 393 renal,> 25 µM
same,GI50,HS 578T breast,> 19.7 µM
same,TGI,HS 578T breast,> 25 µM
same,GI50,BT-549 breast,> 23.3 µM
same,TGI,BT-549 breast,> 25 µM
same,GI50,SF-268 CNS,> 25 µM
same,TGI,SF-268 CNS,> 25 µM
same,GI50,SK-OV-3 ovarian,> 25 µM
same,TGI,SK-OV-3 ovarian,> 25 µM
same,GI50,SK-MEL-5 melanoma,> 25 µM
same,TGI,SK-MEL-5 melanoma,> 25 µM
same,GI50,MALME-3M melanoma,> 25 µM
same,TGI,MALME-3M melanoma,> 25 µM
same,GI50,ACHN renal,> 23.2 µM
same,TGI,ACHN renal,> 25 µM
same,GI50,HCT-15 colon,> 25 µM
same,TGI,HCT-15 colon,> 25 µM
same,GI50,MOLT-4 leukemia,> 25 µM
same,TGI,MOLT-4 leukemia,> 25 µM
same,GI50,M14 melanoma,> 25 µM
same,TGI,M14 melanoma,> 25 µM
same,GI50,UACC-62 melanoma,> 25 µM
same,TGI,UACC-62 melanoma,> 25 µM
same,GI50,EKVX NSCLC,> 25 µM
same,TGI,EKVX NSCLC,> 25 µM
same,GI50,UACC-257 melanoma,> 25 µM
same,TGI,UACC-257 melanoma,> 25 µM
same,GI50,NCI-H226 lung,> 18 µM
same,TGI,NCI-H226 lung,> 25 µM
same,GI50,SNB-75 CNS,> 23.4 µM
same,TGI,SNB-75 CNS,> 25 µM
same,GI50,SF-539 CNS,> 25 µM
same,TGI,SF-539 CNS,> 25 µM
same,GI50,786-0 renal,> 25 µM
same,TGI,786-0 renal,> 25 µM
